Measurements published in ChEMBL document CHEMBL4476874, “Compounds for the modulation of myc activity” (2018).

Target: Myc proto-oncogene protein (Homo sapiens, UniProt P01106)
Assay: Inhibition of human c-Myc assessed as reduction in c-Myc/Max/Ebox DNA complex formation using pre-formed complex of c-Myc and biotinylated DNA containing single Ebox-sequence followed by compound addition and further addition of his6-tagged c-Max and incubated for 2 hrs by AlphaScreen assay

Myc proto-oncogene protein, sequence (P01106 whole entry): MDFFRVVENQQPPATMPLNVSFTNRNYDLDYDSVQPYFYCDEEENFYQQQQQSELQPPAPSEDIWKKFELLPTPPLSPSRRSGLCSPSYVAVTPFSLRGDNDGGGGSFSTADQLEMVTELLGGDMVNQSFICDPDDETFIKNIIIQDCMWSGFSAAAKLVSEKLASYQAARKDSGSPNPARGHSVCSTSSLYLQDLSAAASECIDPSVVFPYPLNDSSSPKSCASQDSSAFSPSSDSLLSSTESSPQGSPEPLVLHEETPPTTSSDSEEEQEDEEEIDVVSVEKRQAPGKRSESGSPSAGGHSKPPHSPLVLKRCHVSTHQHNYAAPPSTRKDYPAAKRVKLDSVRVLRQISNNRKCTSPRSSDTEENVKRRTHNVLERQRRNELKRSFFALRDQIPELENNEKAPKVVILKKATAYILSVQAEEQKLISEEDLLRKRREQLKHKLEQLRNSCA

`COCCNCCC(=O)Nc1sc2c(c1-c1nc3ccc(-c4c(C)n[nH]c4C)cc3s1)CCNC2` showed an IC50 greater than 10 µM.

For `COCCNCCC(=O)Nc1sc2c(c1-c1nc3ccc(-c4ccc5cnn(C)c5c4)cc3s1)CCNC2`, the IC50 was greater than 10 µM.

Compound `COCCNCCC(=O)Nc1sc2c(c1-c1nc3ccc(-c4ccncc4Cl)cc3s1)CCNC2` has an IC50 greater than 10 µM.

In the case of `COCCNCCC(=O)Nc1sc2c(c1-c1nc3ccc(-c4ccccc4Cl)cc3s1)CCNC2`, the IC50 is reported as greater than 10 µM.

`COCCNCCC(=O)Nc1sc2c(c1-c1nc3cc(-c4cnc(OC)c(OC)c4)ccc3s1)CCNC2` was tested, and the IC50 was 1 to 10 µM.

In the case of `Cc1cc(C)c(CNCCC(=O)Nc2sc3c(c2-c2nc4ccccc4s2)CCN(C(C)C)C3)c(=O)[nH]1`, the IC50 is reported as 1 to 10 µM.

`COCCNCCC(=O)Nc1sc2c(c1-c1nc3ccc(-c4ccc(C(=O)N(C)C)cc4F)cc3s1)CCNC2` gave an IC50 of 0.3 to 1 µM.

Work on `COCCNCCC(=O)Nc1sc2c(c1-c1nc3cc(-c4cc5ccccc5[nH]4)ccc3s1)CCNC2` yielded an IC50 greater than 10 µM.

Work on `COCCNCCC(=O)Nc1sc2c(c1-c1nc3ccc(-c4ccc(S(=O)(=O)NC5CC5)cc4)cc3s1)CCNC2` yielded an IC50 greater than 10 µM.

With `COCCNCCC(=O)Nc1sc2c(c1-c1nc3ccc(-c4cncc(OC)c4)cc3s1)CCNC2` the IC50 was 1 to 10 µM.

`COCCNCCC(=O)Nc1sc2c(c1-c1nc3cc(-c4ccc5cnn(C)c5c4)ccc3s1)CCNC2` was tested, and the IC50 was 0.3 to 1 µM.

Compound `CNS(=O)(=O)c1ccccc1-c1ccc2nc(-c3c(NC(=O)CCNCCOC)sc4c3CCNC4)sc2c1` has an IC50 greater than 10 µM.

In the case of `COCCNCCC(=O)Nc1sc2c(c1-c1nc3cc(-c4ccccc4O)ccc3s1)CCNC2`, the IC50 is reported as 1 to 10 µM.

For `COCCNCCC(=O)Nc1sc2c(c1-c1nc3c(C)cccc3o1)CCNC2`, the IC50 was 0.3 to 1 µM.

With `COCCNCCC(=O)Nc1sc2c(c1-c1nc3cc(-c4cc5cccc(OC)c5[nH]4)ccc3s1)CCNC2` the IC50 was 1 to 10 µM.

Work on `COCCNCCC(=O)Nc1sc2c(c1-c1nc3ccc(-c4ccc(C)c(C#N)c4)cc3s1)CCNC2` yielded an IC50 greater than 10 µM.

Compound `COCCNCCC(=O)Nc1sc2c(c1-c1nc3ccc(-c4ccc(N5CCOCC5)nc4)cc3s1)CCNC2` has an IC50 greater than 10 µM.

In the case of `COCCNCCC(=O)Nc1sc2c(c1-c1nc3ccc(-c4cnc(N)c(C(F)(F)F)c4)cc3s1)CCNC2`, the IC50 is reported as greater than 10 µM.

With `COCCNCCC(=O)Nc1sc2c(c1-c1nc3ccc(-c4cccc(C#N)c4)cc3s1)CCNC2` the IC50 was 1 to 10 µM.

With `CNC(=O)Nc1ccc(-c2ccc3sc(-c4c(NC(=O)CCNCCOC)sc5c4CCNC5)nc3c2)cc1` the IC50 was 1 to 10 µM.

For `CC(C)NCCC(=O)Nc1sc2c(c1-c1nc3cc(C#N)ccc3s1)CCNC2`, the IC50 was less than 0.3 µM.

For `COCCNCCC(=O)Nc1sc2c(c1-c1nc3cc(-c4cccnc4OC)ccc3s1)CCNC2`, the IC50 was greater than 10 µM.

With `CC(C)N1CCc2c(sc(NC(=O)CCNc3ccc(-c4nnn[nH]4)cc3)c2-c2nc3ccccc3s2)C1` the IC50 was greater than 10 µM.

In the case of `COCCNCCC(=O)Nc1sc2c(c1-c1nc3ccc(-c4ccccc4NS(C)(=O)=O)cc3s1)CCNC2`, the IC50 is reported as greater than 10 µM.

Work on `CC(C)NCCC(=O)Nc1sc2c(c1-c1nc3cc(-n4cncn4)ccc3s1)CCNC2` yielded an IC50 of less than 0.3 µM.

`COCCNCCC(=O)Nc1sc2c(c1-c1nc3cc(-c4cccc5[nH]ncc45)ccc3s1)CCNC2` showed an IC50 of 1 to 10 µM.

`CC(=O)Nc1ccc(-c2ccc3sc(-c4c(NC(=O)CCNC(C)C)sc5c4CCNC5)nc3c2)cc1` showed an IC50 of 0.3 to 1 µM.

Compound `COCCNCCC(=O)Nc1sc2c(c1-c1nc3ccc(-c4cc(F)cnc4OC)cc3s1)CCNC2` has an IC50 greater than 10 µM.

`CNS(=O)(=O)c1ccccc1-c1ccc2sc(-c3c(NC(=O)CCNCCOC)sc4c3CCNC4)nc2c1` showed an IC50 greater than 10 µM.

For `CCOc1ccc(-c2ccc3nc(-c4c(NC(=O)CCNCCOC)sc5c4CCNC5)sc3c2)cn1`, the IC50 was 1 to 10 µM.

In the case of `COCCNCCC(=O)Nc1sc2c(c1-c1nc3cc(-c4ccc(C)c(C#N)c4)ccc3s1)CCNC2`, the IC50 is reported as greater than 10 µM.

For `COCCNCCC(=O)Nc1sc2c(c1-c1nc3cc(-c4ccc5c(c4)OCO5)ccc3s1)CCNC2`, the IC50 was greater than 10 µM.

Compound `CCOc1ncccc1-c1ccc2nc(-c3c(NC(=O)CCNCCOC)sc4c3CCNC4)sc2c1` has an IC50 greater than 10 µM.

With `COCCNCCC(=O)Nc1sc2c(c1-c1nc3cc(-c4ccnc5[nH]ccc45)ccc3s1)CCNC2` the IC50 was 1 to 10 µM.

For `COCCNCCC(=O)Nc1sc2c(c1-c1nc3ccc(-c4ccc5ncnn5c4)cc3s1)CCNC2`, the IC50 was 1 to 10 µM.

`COCCNCCC(=O)Nc1sc2c(c1-c1nc3cc(-c4ccccc4S(C)(=O)=O)ccc3s1)CCNC2` gave an IC50 greater than 10 µM.

Work on `COCCNCCC(=O)Nc1sc2c(c1-c1nc3ccc(-c4cnccc4C)cc3s1)CCNC2` yielded an IC50 greater than 10 µM.

For `CCC(C)N(CCC(=O)Nc1sc2c(c1-c1nc3ccccc3s1)CCN(C(C)C)C2)C(=O)OC(C)(C)C` (centres undefined), the IC50 was greater than 10 µM.

`COCCNCCC(=O)Nc1sc2c(c1-c1nc3cc(-c4ccncc4Cl)ccc3s1)CCNC2` was tested, and the IC50 was greater than 10 µM.

Compound `CC(C)N1CCc2c(sc(NC(=O)CCN3CCc4ccccc4C3)c2-c2nc3ccccc3s2)C1` has an IC50 greater than 10 µM.

`COc1cccc(NCCC(=O)Nc2sc3c(c2-c2nc4ccccc4s2)CCN(C(C)C)C3)c1` gave an IC50 of 1 to 10 µM.

For `COCCNCCC(=O)Nc1sc2c(c1-c1nc3cc(-c4ccc(S(=O)(=O)NC5CC5)cc4)ccc3s1)CCNC2`, the IC50 was greater than 10 µM.

`COCCNCCC(=O)Nc1sc2c(c1-c1nc3ccc(-c4ccc5c(c4)NC(=O)CO5)cc3s1)CCNC2` was tested, and the IC50 was greater than 10 µM.

`CNc1ncc2cc(-c3ccc4sc(-c5c(NC(=O)CCNCCOC)sc6c5CCNC6)nc4c3)ccc2n1` showed an IC50 greater than 10 µM.

For `COCCNCCC(=O)Nc1sc2c(c1-c1nc3cc(-c4ccc5c(c4)NC(=O)CO5)ccc3s1)CCNC2`, the IC50 was 1 to 10 µM.

Work on `COCCNCCC(=O)Nc1sc2c(c1-c1nc3ccc(-c4cnn(Cc5ccccc5)c4)cc3s1)CCNC2` yielded an IC50 of 1 to 10 µM.

For `COCCNCCC(=O)Nc1sc2c(c1-c1nc3ccc(-c4ccc(OC)nc4C)cc3s1)CCNC2`, the IC50 was greater than 10 µM.

Work on `COc1ccc(-c2ccc3sc(-c4c(NC(=O)CCNC(C)C)sc5c4CCNC5)nc3c2)cc1` yielded an IC50 of less than 0.3 µM.

Compound `COCCNCCC(=O)Nc1sc2c(c1-c1nc3ccc(-c4cncc(OCCOC)c4)cc3s1)CCNC2` has an IC50 greater than 10 µM.

Work on `COCCNCCC(=O)Nc1sc2c(c1-c1nc3ccc(-c4cc5cccc(OC)c5[nH]4)cc3s1)CCNC2` yielded an IC50 of 1 to 10 µM.

`COCCNCCC(=O)Nc1sc2c(c1-c1nc3cc(-c4ccccc4)ccc3s1)CCNC2` showed an IC50 of 1 to 10 µM.

Compound `COCCNCCC(=O)Nc1sc2c(c1-c1nc3cc(-c4ccc(N5CCNCC5)nc4)ccc3s1)CCNC2` has an IC50 of less than 0.3 µM.

Work on `COCCNCCC(=O)Nc1sc2c(c1-c1nc3ccc(-c4ccc(C(=O)N5CCOCC5)cc4)cc3s1)CCNC2` yielded an IC50 of 0.3 to 1 µM.

In the case of `COCCNCCC(=O)Nc1sc2c(c1-c1nc3ccc(-c4c(C)nn(C)c4C)cc3s1)CCNC2`, the IC50 is reported as greater than 10 µM.

`COCCNCCC(=O)Nc1sc2c(c1-c1nc3ccc(-c4cccc5[nH]ncc45)cc3s1)CCNC2` was tested, and the IC50 was 1 to 10 µM.

With `COCCNCCC(=O)Nc1sc2c(c1-c1nc3ccc(-c4ccccc4O)cc3s1)CCNC2` the IC50 was greater than 10 µM.

`COCCNCCC(=O)Nc1sc2c(c1-c1nc3ccc(-c4ccc(O)c(F)c4)cc3s1)CCNC2` gave an IC50 greater than 10 µM.

For `CC(C)N1CCc2c(sc(NC(=O)CCNc3ccccc3)c2-c2nc3ccccc3s2)C1`, the IC50 was greater than 10 µM.

In the case of `COCCNCCC(=O)Nc1sc2c(c1-c1nc3ccc(-c4ccc(C)nc4OC)cc3s1)CCNC2`, the IC50 is reported as greater than 10 µM.

For `COCCNCCC(=O)Nc1sc2c(c1-c1nc3cc(-c4ccccc4Cl)ccc3s1)CCNC2`, the IC50 was 1 to 10 µM.

In the case of `COCCNCCC(=O)Nc1sc2c(c1-c1nc3cc(-c4ccc(C)nc4OC)ccc3s1)CCNC2`, the IC50 is reported as 1 to 10 µM.

Work on `COCCNCCC(=O)Nc1sc2c(c1-c1nc3cc(-c4ccc(OC)c(OC)c4)ccc3s1)CCNC2` yielded an IC50 greater than 10 µM.

Compound `CC(C)NCCC(=O)Nc1sc2c(c1-c1nc3cc(C(C)O)ccc3s1)CCNC2` (centres undefined) has an IC50 of less than 0.3 µM.

Compound `COCCNCCC(=O)Nc1sc2c(c1-c1nc3ccc(-c4ccc(OC)nc4)cc3s1)CCNC2` has an IC50 of 1 to 10 µM.
